Experiments:
[1] = test system: RPEM cells; assay: Cell migration (scratch) assay, RPEM cells with vitreous; format: cell-based, human; conditions: idelalisib 5 μM, 16 hours
Description: 3C. After the RPEM cells in a 12-well plate reached 90% confluence, the cultured wells were scratched with a 200 μl pipet tip and treated with RV supplemented with idelalisib (5 μM) or its vehicle. 16 hours later the pictures of the cells were taken and analyzed. A representative raw data of three experiments below the bar graphs is shown. Scale bar: 500 μm. RPEM cells in a 12-well plate were grown to near confluence, and then the wells with 90% confluent cells were scratched with 200 μl pipet tip. The cells were washed with PBS and treated with DMEM/F12 or RV (1:2 dilution in DMEM/F12) with or without idelalisib (5 μM). The scratched area was photographed to capture the initial width and photographed again 16 hours later. Analysis was conducted using Adobe Photoshop CS4 software. At least three independent experiments were performed.

[2] = test system: RPEM cells; assay: Cell proliferation assay, RPEM cells with vitreous; format: cell-based, human; conditions: idelalisib 5 μM, 48 hours
Description: 3A. RPEM cells were seeded into a 24-well plate at a density of 3×10^4 cells/well. After 8 hours the cells had attached, the medium was changed to either 0.5 ml DMEM (−) or RV supplemented with idelalisib (5 μM) or its vehicle. After treated for 48 hours, the cells were counted with a hemocytometer under a light microscope. RPEM cells were seeded into wells of a 24-well plate at a density of 3×10^4 cells/well in DMEM/F12 with 10% FBS. Following attachment, the cells were treated with DMEM/F12 or RV (1:2 dilution in DMEM/F12) with or without idelalisib (5 μM). On day 3, the cells were trypsin detached from the plates and counted in a hemocytometer. Each experimental condition was assayed in duplicate, and at least three independent experiments were performed^24, 44.

[3] = test system: HRECs; assay: VEGF-induced cell proliferation assay in HRECs; format: cell-based, human; conditions: VEGF 20 ng/ml, idelalisib 5 μM, 48 hours
Description: In a cell proliferation assay, HRECs cells were seeded into 24-well plates at a density of 30,000 cells/well in an endothelial growth medium kit. After attaching the plates, the cells were starved for growth factors for 7 hours, and then treated with VEGF (20 ng/ml) or VEGF plus idelalisib (5 μM). After 48 hours, the cells were trypsin detached and then counted in a hemocytometer under a light microscope as shown in FIG. 10A from three independent experiments^50, 61.

[4] = test system: PVR induced by RPEM cells; assay: Experimental PVR in rabbits; format: in vivo, rabbit
Description: PVR was induced in the right eyes of two to three-month-old Dutch Belted pigmented rabbits. Briefly, one week after gas vitrectomy, rabbits were intravitreally injected with platelet-rich plasma (PRP, 0.1 ml) and RPEM cells (300,000 cells) supplemented with either idelalisib (10 μM) or its vehicle (0.1% DMSO). Subsequently, the rabbits were examined at the indicated times and PVR stage was evaluated using a double blind approach with an indirect ophthalmoscope through a 30D lens, and then the PVR status for each rabbit was plotted (4A). The […] values are indicated at the top of the figure after a Mann-Whitney analysis. Representative rabbits on day 28 were examined by eletroretinography (ERG) (4B), optical coherence tomography (OCT) (4C) and histological analysis by hematoxylin & eosin stain (4D). The numbers in C and D (0, 2, 3, and 5) denote PVR stages in the examined rabbits. Single arrow points to the retina and double arrows point to cellular fibrotic membranes (4C). Arrowhead and double arrows indicate cellular membranes (4D).
As previously described^1, 55, PVR was induced in right eyes of two-three months old Dutch Belted rabbits purchased from Covance (Denver, Pa.). Briefly, a gas vitrectomy was performed by injecting 0.1 ml of perfluoropropane (C3F8) (Alcon, Fort Worth, Tex.) into the vitreous cavity 4 mm posterior to the corneal limbus. […]

[5] = test system: HRECs; assay: VEGF-induced tube formation assay in HRECs; format: cell-based, human; conditions: idelalisib 5 μM
Description: A tube formation assay was performed as previously described^63. A collagen gel mixture was added to a 96-well plate (70 μl/well), which was then incubated for about 60 minutes at 37° C. to let the collagen gel polymerize. After polymerization, 4.0×10^4 HRECs were seeded in each well with their cultured medium maintained at a 37° C. incubator. This day was considered day 1. On day 2, the medium was removed and 150 μl of the gel mixture was added to each well supplemented with VEGF, or VEGF plus idelalisib (5 μM). On days 3, three different fields per well were randomly chosen and photographed using the EVOS FL Auto microscope. The results in FIG. 10B are representative of three independent experiments^61, 64, 65. Each bar graph indicates mean±standard deviation of three independent experiments. “*” denotes significant difference between the two compared groups. P<0.05 using an unpaired t-test.

CC[C@H](Nc1ncnc2[nH]cnc12)c1nc2cccc(F)c2c(=O)n1-c1ccccc1 [idelalisib]
effect on vitreous-induced migration of RPEM cells [1]: prevented | effect on vitreous-induced proliferation of RPEM cells [2]: prevented | effect on VEGF-stimulated cell proliferation of HRECs [3]: completely blocked | rabbits developing to PVR stage 3 ([4]; idelalisib 10 μM intravitreal with PRP and RPEM cells): one of nine | effect on pathogenesis of PVR ([4]; idelalisib 10 μM intravitreal, days 7, 14, 21 and 28, Mann-Whitney): significantly suppressed | effect on VEGF-stimulated tube formation of HRECs [5]: completely blocked
